pIC50: −log10 of the molar value.
Biological target: T1, EBP (Homo sapiens, UniProt Q15125)
T1 construct: HEK293T cells were utilized as the source of EBP enzyme; endogenous in cells; host or cells: HEK293T
Assay: EBP Functional Assay (EBP immunoaffinity LC-MS assay)
Format: biochemical
Conditions: HEK293T cells as source of EBP enzyme; 30 min with inhibitor, then zymosterol-d5, 37° C. for 4 h; percent conversion by LC-APCI MRM MS
Protocol: The EBP immunoaffinity (IA) LC-MS assay measures the potency of small molecule inhibitors of EBP by quantifying their concentration-dependent changes in the enzyme's substrate and product using liquid chromatography atmospheric pressure chemical ionization multiple reaction monitoring mass spectrometry (LC-APCI MRM MS). HEK293T cells were utilized as the source of EBP enzyme. The enzyme was incubated with the small molecule inhibitors at variable concentrations for 30 min. Deuterated form of EBP substrate, zymosterol-d5 (Avanti Polar Lipids, Cat #700068P-1 mg), was then added and the plate was incubated at 37° C. for 4 h. Finally, the sterol isomers were extracted and injected to LC-APCI MRM MS. MRM transition used for the quantification for both zymosterol and dihydrolathosterol (substrate and product of EBP enzymatic reaction, respectively) is 372.3-203.2, CE 30 and DP 80 in positive ion mode. Percent conversion of the zymosterol-d5 to dehydrolathosterol-d5 was used to derive IC50 curves. Tasin-1 (1′-[(4-Methoxyphenyl)sulfonyl]-4-methyl-1,4′-bipiperidine, CAS 792927-06-1) was used as the reference small molecule inhibitor. Percent conversion versus the compound concentration data were fit to the following 4-parameter logistic model to generate IC50 curves: […]

T1 sequence (Q15125 whole entry): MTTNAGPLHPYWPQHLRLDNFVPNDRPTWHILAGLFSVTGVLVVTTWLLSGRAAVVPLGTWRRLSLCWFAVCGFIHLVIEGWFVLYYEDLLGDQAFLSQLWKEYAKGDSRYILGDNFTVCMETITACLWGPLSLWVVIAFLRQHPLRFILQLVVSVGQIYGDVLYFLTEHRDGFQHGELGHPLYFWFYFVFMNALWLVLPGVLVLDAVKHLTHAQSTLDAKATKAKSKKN

O=S(=O)(c1ccc(OC(F)F)cc1)N1[C@@H]2CC[C@H]1C[C@@](O)(CN1CCOCC1)C2 [Example 34, (1R,3s,5S)-8-((4-(Difluoromethoxy)phenyl)sulfonyl)-3-(morpholinomethyl)-8-azabicyclo[3.2.1]octan-3-ol] was tested. Which pIC50 did it give?
The pIC50 was 6.82 to 7.30.

How did the pIC50 turn out when COc1nc(C)ccc1S(=O)(=O)N1[C@@H]2CC[C@H]1C[C@H](N1CCC(C)CC1)C2 [Example 3, (1R,3s,5S)-8-((2-Methoxy-6-methylpyridin-3-yl)sulfonyl)-3-(4-methylpiperidin-1-yl)-8-azabicyclo[3.2.1]octane] was run?
The pIC50 was > 7.30.

With Cc1nc(C(F)(F)F)ccc1S(=O)(=O)N1[C@@H]2CC[C@H]1C[C@@H](NCC1CCOCC1)C2 (single isomer, unassigned) [Example 25] as the molecule, how does the pIC50 read?
The pIC50 was > 7.30.

O=S(=O)(c1ccc(OC(F)F)cc1)N1C2CCC1CC(NC[C@H]1C[C@H]1CO)C2 (mixture of isomers) [Example 56, rac-((1R,2S)-2-(((8-((4-(Difluoromethoxy)phenyl)sulfonyl)-8-azabicyclo[3.2.1]octan-3-yl)amino)methyl)cyclopropyl)methanol] was tested. Which pIC50 did it give?
Its pIC50 is 5.70 to 6.82.

How did the pIC50 turn out when Cc1nc(C(F)(F)F)ccc1S(=O)(=O)N1[C@@H]2CC[C@H]1C[C@@H](NCC1(C)COC1)C2 (single isomer, unassigned) [Example 27] was run?
Its pIC50 is > 7.30.

With Cc1nc(C(F)(F)F)ccc1S(=O)(=O)N1[C@@H]2CC[C@H]1C[C@@H](N1CC3(COC3)C1)C2 (single isomer, unassigned) [Example 23] as the molecule, how does the pIC50 read?
The pIC50 was > 7.30.

How did the pIC50 turn out when O=S(=O)(c1ccc(OC(F)F)cc1)N1C2CCC1CC(N1CC3CCC(C3)C1)C2 (stereo not drawn) [Example 58, 8′-((4-(Difluoromethoxy)phenyl)sulfonyl)-3,8′-diaza-3,3′-bi(bicyclo[3.2.1]octane)] was run?
Its pIC50 is > 7.30.

How did the pIC50 turn out when CC1CCN([C@@H]2C[C@H]3CC[C@@H](C2)N3S(=O)(=O)c2cc(-c3ccccc3)n[nH]2)CC1 [Example 10, (1R,3s,5S)-3-(4-Methylpiperidin-1-yl)-8-((3-phenyl-1H-pyrazol-5-yl)sulfonyl)-8-azabicyclo[3.2.1]octane] was run?
Its pIC50 is > 7.30.

With CC(O)CCN[C@@H]1C[C@H]2CC[C@@H](C1)N2S(=O)(=O)c1ccc(OC(F)F)cc1 (mixture of isomers) [Example 60, rac-4-(((1R,3s,5S)-8-((4-(difluoromethoxy)phenyl)sulfonyl)-8-azabicyclo[3.2.1]octan-3-yl)amino)butan-2-ol] as the molecule, how does the pIC50 read?
Its pIC50 is 5.70 to 6.82.

How did the pIC50 turn out when CC1CCN([C@@H]2C[C@H]3CC[C@@H](C2)N3S(=O)(=O)c2cn(-c3ccccc3)nn2)CC1 [Example 44, (1R,3s,5S)-3-(4-Methylpiperidin-1-yl)-8-((1-phenyl-1H-1,2,3-triazol-4-yl)sulfonyl)-8-azabicyclo[3.2.1]octane] was run?
The pIC50 was 5.70 to 6.82.

How did the pIC50 turn out when Cc1nc(C(F)(F)F)ccc1S(=O)(=O)N1[C@@H]2CC[C@H]1C[C@H](N1CC3(COC3)C1)C2 (single isomer, unassigned) [Example 22] was run?
The pIC50 was > 7.30.

CC1CCN([C@@H]2C[C@H]3CC[C@@H](C2)N3S(=O)(=O)c2ccc(OC(F)F)cc2)CC1 [Example 21, (1R,3s,5S)-8-((4-(difluoromethoxy)phenyl)sulfonyl)-3-(4-methylpiperidin-1-yl)-8-azabicyclo[3.2.1]octane] was tested. Which pIC50 did it give?
The pIC50 was > 7.30.

From patent US20250161281A1, “EMOPAMIL-BINDING PROTEIN INHIBITORS AND USES THEREOF” (BIOGEN MA INC., priority 2022, published 2025)
